Like-named read-outs stand apart in the source and are kept apart here.
Legend:
CYP3A4 [1] = biological target: T1, CYP3A4 (Homo sapiens, UniProt P08684); test: CYP3A4 inhibition and inactivation kinetics, nifedipine oxidation as marker reaction
Method: Enzyme incubations were performed in triplicate, with mechanical stirring in a water bath at 37 °C. Aliquots of flavonoids with a final concentration of 1 μM were dissolved in methanol, transferred to glass tubes, and evaporated to dryness, except in control samples without the inhibitor (flavonoid). After the evaporation of the solvent, an incubation mixture was prepared to a volume of 100 μL, consisting of 5 pmol CYP3A4 enzyme, 50 mM potassium phosphate buffer (pH 7.4), and ultrapure water. An NADPH generating system composed of 0.1 M G6P: 10 mg/mL NADP^+: 1000 IU/mL G6PDH = 50:25:1 (v/v/v) was prepared immediately before use. This generating system contains glucose-6-phosphate dehydrogenase that regenerates NADP^+ into NADPH, keeping the concentration of the cytochrome P450 coenzyme (NADPH) constant in the incubation. The addition of the generating system (15% of the volume in the final incubation, v/v) started the reaction. Nifedipine was used to test out the residual enzyme activity at a final concentration of 200 μM. The reaction was stopped using 1 mL of ice-cold 1% solution of formic acid in dichloromethane. The samples were mixed, then centrifuged for 10 min on 1900g (Rotofix 32, Westfalia, Germany). After centrifugation, two layers were formed (water and organic layer). 850 µL of the organic layer was transferred to cuvettes and evaporated. The analyte was then dissolved in 30 µL of methanol. An Agilent Zorbax SB C18 column (4.6 × 250 mm, 3 μm, Agilent Technologies, Santa Clara, CA, USA) was used to analyze the samples by HPLC. The mobile phase was composed of methanol and water in a ratio of 64:36. The analysis was isocratic. The flow was set at 1.0 mL min^−1. The injection volume was set at 10 µL. Nifedipine was used as a marker substrate. The reaction observed was the oxidation of nifedipine. Chromatograms were recorded at 254 nm. The duration of the analysis was set at 25 min. The retention time of nifedipine is 7.1 min and that of oxidized nifedipine is 10.8 min [42]. […] For all the flavonoids, half maximal inhibitory concentration (IC50), constant of inhibition (Ki), constant of inactivation speed (kinact), and inactivation efficacy (kinact/Ki) were determined.
A one-sided t-test would be used to assess the statistical significance in the differences between samples and controls, based on measurements of residual activity. A nonlinear equation was used to calculate the IC50 value. The Michaelis-Menten equation was used to determine the inactivation constant and the inactivation rate of the inhibitor. Statistical processing and graph preparations were done using Program R (The R Project for Statistical Computing, Vienna, Austria) and Microsoft Excel (Microsoft, Redmond, WA, USA).

CYP3A4 [2] = biological target: T1, CYP3A4; parameters: purchased Thermo Fisher Scientific (Waltham, MA, USA); host or cells: baculosomes (baculovirus-infected insect cell microsomes); details: cited from earlier work; for inhibition of CYP3A4: 1 µM concentration, testosterone as marker substrate; for IC50 / Ki / kinact / kinact/Ki: testosterone (TSN) as marker substrate
[3] = combination treatment of apigenin and paclitaxel in vivo; cited from earlier work
[4] = parameters: method as in PMID 17093006; details: rats, chrysin 20–100 µM; cited from earlier work
CYP3A4 [5] = biological target: T1, CYP3A4; test: Pseudo-irreversible inhibition assay (incubation, dialysis with or without potassium hexacyanoferrate, testosterone marker); assay type: biochemical; parameters: purchased Thermo Fisher Scientific (Waltham, MA, USA); host or cells: baculosomes (baculovirus-infected insect cell microsomes); details: after incubation and dialysis (Figure 4)
Method: The aim of this assay is to test out the formation of covalent complexes with ferrous iron (Fe^2+), by assessing a recovery of enzyme activity after dialysis with or without the addition of an oxidant. Three types of experiments were performed for each flavonoid: incubation mixture without flavonoids (control), incubation mixture with flavonoid, and incubation mixture with flavonoid to which oxidant was added after incubation. Each incubation with the inhibitor was performed for 30 min using the same experimental settings as described above (Section 4.2.1). After incubation, the samples were transferred to dialysis cartridges. Aa oxidant—20 mM solution of potassium hexacyanoferrate was added to one of the incubations before dialysis. The cassettes (Slide-A-Lyzer Dialysis Cassettes, Thermo Fisher Scientific, Waltham, MA, USA) were immersed in 50 mM potassium phosphate buffer solution (pH 7.4) for 30 min (dialysis solution was exchanged three times). After dialysis, the samples were transferred from the cassette back to the glass tube, and the residual enzyme activity was assessed using testosterone as a marker substrate (200 μM final concentration). As the NADPH generating system was also dialyzed, it was again added to the incubations to initiate enzyme reaction. […] The samples were analyzed by HPLC.

[6] = parameters: method as in PMID 7937537; details: healthy volunteers; cited from earlier work
[7] = human, CYP3A4 enzyme, pH 7.4, probe nifedipine (200 µM), nifedipine oxidation
[8] = human, CYP3A4 enzyme, pH 7.4, probe nifedipine (200 µM), nifedipine oxidation, kinact/Ki (inactivation efficiency), nifedipine (NIF) as marker substrate, ratio of inactivation rate constant and inhibition constant
[9] = nifedipine (NIF) as marker substrate, ratio of inactivation rate constant and inhibition constant

T1 sequence (P08684 whole entry): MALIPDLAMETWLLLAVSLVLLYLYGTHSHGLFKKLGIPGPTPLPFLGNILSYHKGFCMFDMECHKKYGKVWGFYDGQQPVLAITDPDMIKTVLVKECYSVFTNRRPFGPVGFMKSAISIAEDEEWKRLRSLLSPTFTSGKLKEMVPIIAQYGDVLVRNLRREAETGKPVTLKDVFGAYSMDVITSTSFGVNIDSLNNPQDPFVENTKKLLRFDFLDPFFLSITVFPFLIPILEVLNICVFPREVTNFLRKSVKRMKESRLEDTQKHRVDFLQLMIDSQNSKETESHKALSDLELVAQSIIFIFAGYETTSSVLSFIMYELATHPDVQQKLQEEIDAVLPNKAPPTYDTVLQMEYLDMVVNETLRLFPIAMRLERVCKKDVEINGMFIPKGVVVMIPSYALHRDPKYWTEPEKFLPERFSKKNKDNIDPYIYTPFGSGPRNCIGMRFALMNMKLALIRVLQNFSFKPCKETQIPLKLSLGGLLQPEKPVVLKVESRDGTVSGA

| IC50 (CYP3A4 [1]) | Ki (CYP3A4 [1]) | kinact (CYP3A4 [1]; [7]) | kinact/KI (CYP3A4 [1]; [8]) | kinact/Ki (inactivation efficiency) (CYP3A4 [1]; [9]) | kinact (CYP3A4 [1]; human, pH 7.4) | kinact/Ki (inactivation efficiency) (CYP3A4 [1]; human, pH 7.4) | kinact/KI (CYP3A4 [1]; human, pH 7.4, kinact/Ki (inactivation efficiency)) | reduction of enzyme activity (CYP3A4 [5]) | SMILES | inhibition of CYP3A4 (CYP3A4 [2]) | IC50 (CYP3A4 [2]) | Ki (CYP3A4 [2]) | kinact (CYP3A4 [2]) | kinact/Ki (CYP3A4 [2]) | oral bioavailability of paclitaxel [3] | AUC and peak serum concentration (Cmax) of nitrofurantoin [4] | increase in AUC of cerivastatin [6] |
| --- | --- | --- | --- | --- | --- | --- | --- | --- | --- | --- | --- | --- | --- | --- | --- | --- | --- |
| 7.5 ± 2.7 µM | 12.1 ± 5.6 µM | 0.00167 s⁻¹ | ~167 M⁻¹ s⁻¹ | 130 M⁻¹ s⁻¹ | – | – | – | – | COc1ccc(-c2cc(=O)c3c(O)cc(O)cc3o2)cc1 [acacetin] | statistically significant inhibition | 10.9 ± 0.3 µM | 6 ± 3 µM | 0.036 ± 0.006 min⁻¹ | 100 M⁻¹ s⁻¹ | – | – | – |
| 2.5 ± 0.6 µM | 2.4 ± 1 µM | – | – | – | 0.00117 s⁻¹ | 483 M⁻¹ s⁻¹ | 500 M⁻¹ s⁻¹ | approximately 99% | O=c1cc(-c2ccccc2)oc2cc(O)cc(O)c12 [chrysin, 5,7-dihydroxy-flavone] | statistically significant inhibition | 0.6 ± 0.5 µM | 0.6 ± 0.3 µM | 0.065 ± 0.005 min⁻¹ | 1800 M⁻¹ s⁻¹ | – | significantly increased | – |

Second part, the compound before the results:

| SMILES | IC50 (CYP3A4 [1]) | Ki (CYP3A4 [1]) | kinact (CYP3A4 [1]; [7]) | kinact/KI (CYP3A4 [1]; [8]) | kinact/Ki (inactivation efficiency) (CYP3A4 [1]; [9]) | kinact (CYP3A4 [1]; human, pH 7.4) | kinact/Ki (inactivation efficiency) (CYP3A4 [1]; human, pH 7.4) | kinact/KI (CYP3A4 [1]; human, pH 7.4, kinact/Ki (inactivation efficiency)) | reduction of enzyme activity (CYP3A4 [5]) | inhibition of CYP3A4 (CYP3A4 [2]) | IC50 (CYP3A4 [2]) | Ki (CYP3A4 [2]) | kinact (CYP3A4 [2]) | kinact/Ki (CYP3A4 [2]) | oral bioavailability of paclitaxel [3] | AUC and peak serum concentration (Cmax) of nitrofurantoin [4] | increase in AUC of cerivastatin [6] |
| --- | --- | --- | --- | --- | --- | --- | --- | --- | --- | --- | --- | --- | --- | --- | --- | --- | --- |
| O=c1cc(-c2ccc(O)cc2)oc2cc(O)cc(O)c12 [apigenin] | – | – | – | – | – | – | – | – | – | statistically significant inhibition | – | – | – | – | increase in oral bioavailability of paclitaxel | – | – |
| CC[C@H]1OC(=O)[C@H](C)[C@@H](O[C@H]2C[C@@](C)(OC)[C@@H](O)[C@H](C)O2)[C@H](C)[C@@H](O[C@@H]2O[C@H](C)C[C@H](N(C)C)[C@H]2O)[C@](C)(O)C[C@@H](C)C(=O)[C@H](C)[C@@H](O)[C@]1(C)O [erythromycin] | – | – | – | – | – | – | – | – | – | – | – | – | – | – | – | – | 21% |
| O=C1CC(c2ccccc2)Oc2cc(O)cc(O)c21 (centres unmarked) [pinocembrin, 5,7-dihydroxy-flavanone] | 4.3 ± 1.1 µM | 5.1 ± 1.6 µM | 0.000667 s⁻¹ | ~167 M⁻¹ s⁻¹ | 130 M⁻¹ s⁻¹ | – | – | – | – | statistically significant inhibition | 5 ± 0.6 µM | 1.2 ± 0.3 µM | 0.018 ± 0.001 min⁻¹ | 250 M⁻¹ s⁻¹ | – | – | – |

— publication PMC8158701, “Characterization of the CYP3A4 Enzyme Inhibition Potential of Selected Flavonoids” (Molecules, 2021)
